Measured values reported in US6492329B1, “Cytokine and hemopoietic factor endogenous production enhancer and methods of use thereof” (Novelos Therapeutics, Inc., priority 1995, dated 2002).
Several values for one entry are separate records, joined by “and”; a condition that tells them apart may be missing. Identical values can stand only once.

Tests used:
[1] = tested on: Erlich adenocarcinoma cells; assay: Erlich adenocarcinoma in mice: ascitic fluid and survival (Example 14); conditions: for Accumulation of ascitic (weight gain, %): Erlich adenocarcinoma
Procedure: (§3) An influence of 7 day course of test article daily administration was studied in respect of tumor progression, which was estimated using the two integral indices: pace of mouse weight gain due to accumulation of ascitic fluid, and by animal mean survival time after inoculation.
(§4) The study was carried out on DBA/2 mice weighing 18-21 g. First, tumor cell passage was performed using 6 animals for each cell line. For this, cells kept at the temperature of the liquid nitrogen were de-frozen and adjusted to the concentration of 5×10^6 cells/mL by sterile Hanks' solution. Then, 6 mice were intra peritoneally inoculated with 0.2 mL of each line cellular suspension.
(§5) Ascitic fluid was collected 6 days after the inoculation with L1210 cells, 8 days after the inoculation with P388 ones and 18 days after inoculation with Erlich adenocarcinoma cells. Thus obtained, the samples of passaged tumor cells were used for the main experiments. The fluid liquid was dissolved by sterile Hanks' solution so that cell concentration be 5×10^6 cells/mL for P388 cells and Erlich adenocarcinoma cells, 5×10^5 cells/mL for L1210 cells.
(§6) Eleven groups of animals with no less than 15 mice each were formed for experiments with either tumor cell line. Mice were inoculated with 0.2 mL of resultant cell suspensions per mouse (10^6 P388 and Erlich adenocarcinoma cells/mouse, and 10^5 L1210 cells/mouse). 24 hours after the tumor cells inoculation, animals were given the first injections of the test articles or vehicles. The test article injections were made daily till the 14th day of the experiment or till the animal death. The volume of solutions injected comprised 0.01 mL/g body weight.
(§7) #1—intact animals receiving imitation of tumor cell inoculation (injection of normal saline) which further were treated with normal saline throughout the entire experiment;
(§8) #2—control animals, inoculated with tumor cells, which further were treated with test article vehicle (normal saline);

HL-60 cells = assay: Proliferation/apoptosis of HL-60 tumor cells (cell number per well, flow cytofluorometry)
Procedure: Subsequent evaluation of the cell cycle parameters was carried out by the flow cytofluorometry technique.
A mononuclear fraction of blood leukocytes were obtained by centrifugation in gradient of fikoll-metrizoat (Histopaque, Sigma). […] Cell viability was estimated by the Trypan blue exclusion method, then the cell suspension was placed into wells of 96-well microtiter plates—200,000 cells per well. […] Cultivation was carried out in closed flasks, the medium volume was 12 mL, it was changed every four days by centrifugation. The nature of the cells growth was suspensive. […] 50 μL of each test solution were added to one or the other cell culture and thereafter cells were cultivated for 24-96 hours. Then, they were tested by the flow cytofluorometry to estimate DNA content in the cell nuclei. In case of apoptosis-like cellular death, the portion of cell nuclei with normal content of DNA became reduced, while the portion of cell nuclei containing abnormally small DNA quantity became larger.
The analysis procedure was the following: after incubation completion, cells were centrifuged and transferred to a standard phosphate isotonic buffer pH 7.4, containing RNA-ase A (20 μg/mL), ethidium bromide (fluorometric indicator for double stranded nucleic acid. 10 μg/mL) and MgCl2 (5 mM). After the cells were disintegrated by nonionic detergent Triton X-100 (final concentration 0.1%). The suspension of cell nuclei thus obtained was analyzed by flow cytofluorometry with an argon laser as a source of light (wave length 488 nm). The red fluorescence due to DNA bound ethidium bromide was taken to be the measure of DNA content in the cell nuclei.

[2] = tested on: rat embrional fibroblasts (REF) after UV-irradiation; assay: Number of REF cells after UV-irradiation; assay type: cell-based
How it was run: (§1)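 REF cells in DMEM with 10% FCS, seeded at 800 000 cells/mL, were incubated with test articles for 72 h and counted per mL at 0, 24, 48 and 72 h. In the apoptosis set, cells received UV at 4 Dj with compounds added immediately after, and were counted every 24 h.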

[3] = tested on: e-ras cell line (REF transformed with E1A and ras-oncogene); assay: Number of clones of e-ras cells throughout 72-hr incubation; assay type: cell-based, rat
How it was run: (§2)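 REF and E1A/ras-transformed REF (e-ras) cells in DMEM with 10% fetal calf serum; e-ras seeded at 300 cells per 5 cm dish, test articles added after 7 days of growth. For apoptosis, UV at 4 Dj with test articles added immediately after. Clones per dish counted every 24 h over 72 h; DNA fragmentation by agarose gel electrophoresis.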

normal human lymphocytes = assay: Proliferation/apoptosis of normal human lymphocytes (cell number per well, flow cytofluorometry); assay type: cell-based
leukemia L1210 cells [4] = assay: Leukemia L1210 in mice: ascitic fluid and survival (Example 14); conditions: for Accumulation of ascitic (weight gain, %): leukemia L1210
[5] = tested on: e-ras cells after UV-irradiation; assay: Number of clones of e-ras cells after UV-irradiation; assay type: cell-based, rat
How it was run: as §2

leukemia L1210 cells [6] = assay: Leukemia L1210 in mice: serum cytokines, ascitic fluid, survival (Example 5); conditions: for Accumulation of ascitic fluid (weight gain) / Concentration in serum: IFNα / Concentration in serum: IL-1 / Concentration in serum: IL-2 / Concentration in serum: IL-6 / Concentration in serum: TNFα: L1210 mice
Procedure: (§9) An influence of 7 day course of test article daily administration was studied in respect of variations of serum cytokine levels (IL-1, IL-2, IL-6, IFNα, TNF). In parallel, the tumor progression was estimated using the two integral indices: pace of mouse weight gain due to accumulation of ascitic fluid, and by animal mean survival time after inoculation.
(§10) The study was carried out on DBA/2 mice weighing 18-21 g. First, tumor cell passage was performed using 6 animals for each cell line. For this, cells kept at the temperature of the liquid nitrogen were de-frozen and adjusted to the concentration of 5×10^6 cells/mL by sterile Hanks' solution. Then, 6 mice were intraperitoneally inoculated with 0.2 mL of each line cellular suspension.
(§11) Ascitic fluid was collected 6 days after the inoculation with L1210 cells and 8 days after the inoculation with P388 ones. Thus obtained, the samples of passaged tumor cells were used for the main experiments. The fluid liquid was dissolved by sterile Hanks' solution so that cell concentration be 5×10^6 cells/mL for P388 cells and 5×10^5 cells/mL for L1210 cells.
(§12) Nine groups of animals with no less than 15 mice each were formed for experiments with either tumor cell line. Mice were inoculated with 0.2 mL of resultant cell suspensions per mouse (10^6 P388 cells/mouse, and 10^5 L1210 cells/mouse). 24 hours after the tumor cells inoculation. animals were given the first injections of the test articles or vehicles. The test article injections were made daily till the 14th day of the experiment or until the animal's death. The volume of solutions injected comprised 0.01 mL/g body weight.
as §7, §8

leukemia P388 cells [7] = assay: Leukemia P388 in mice: serum cytokines, ascitic fluid, survival (Example 5); conditions: for Accumulation of ascitic fluid (weight gain) / Concentration in serum: IFNα / Concentration in serum: IL-1 / Concentration in serum: IL-2 / Concentration in serum: IL-6 / Concentration in serum: TNFα: P388 mice
Procedure: as §9, §10, §11, §12, §7, §8

[8] = tested on: rat embrional fibroblasts (REF); assay: Number of REF cells throughout 72-hr incubation; assay type: cell-based
How it was run: as §1

leukemia P388 cells [9] = assay: Leukemia P388 in mice: ascitic fluid and survival (Example 14); conditions: for Accumulation of ascitic (weight gain, %): leukemia P388
Procedure: as §3, §4, §5, §6, §7, §8

[10] = tested on: CBA mice with cyclophosphamide-induced hemo- and immunodepression; assay: Cyclophosphamide-induced hemo- and immunodepression in mice; assay type: in vivo, mouse; conditions: 5 mg/kg IP daily for 5 days
Procedure: The study was designed to evaluate the effect of a 5-day long administration of the test articles on the capability of the CP-treated murine splenocytes to produce IL-2 and GM-CSF in vitro. In addition, the number of blood leukocytes and lymphocytes and the bone marrow cellularity (number of karyocytes) were determined at 8 days after CP administration. Some animals receiving CP were then challenged with sheep red blood cells (SRBC), and the humoral immune response to the antigen was evaluated.
Male CBA mice (18 to 20 g body weight) were given a single intraperitoneal injection of CP in a dose of 50 mg/kg. […] Group description is represented below.
Injections were performed during 5 days: once a day, daily.
Twenty four hours after the completion of 5 day treatment course (on the 8th day after the CP injection), mice were euthanized and splenocyte cultures were aseptically prepared for assessment of spontaneous production of IL-2 and GM-CSF by the spleen lymphocytes in vitro.
Simultaneously, blood and marrow samples were collected for blood leukocyte and lymphocyte, and marrow nucleated cell counted,
Serum samples from immunized animals were tested on level of SRBC agglutinins (the day 8 after the CP injection, and the day 7 after the immunization).

[11] = tested on: CBA mice with radiation-induced hemo- and immunodepression; assay: Radiation-induced hemo- and immunodepression in mice; assay type: in vivo, mouse; conditions: mice irradiated 1 Gy, 5 mg/kg IP daily for 7 days, day 8 post-exposure
Procedure: The study was designed to evaluate efficacy of 7-day daily administration of the test articles (with the dosing started 2 hours post-exposure) on the capability of the splenocytes from mice exposed to radiation to produce IL-2 and GM-CSF in vitro. In addition, the number of blood leukocytes and lymphocytes and the spleen and bone marrow cellularity (number of karyocytes), as well as splenic and medullary colony-stimulating capacity, were determined at 8 days post-exposure.
Male CBA mice (18 to 20 g body weight) were irradiated with single dose of 180 kV X-rays filtered with 0.5 mm Cu (at 15 mA, distance—70 cm, duration 2 min. and 28 sec.).
The total absorbed dose comprised approximately 1 Gy. Five groups of animals (with no less than 12 mice in each) were formed. Group description is represented below.
Injections were performed during 7 days: once a day, daily.
Twenty four hours after the completion of 7 day treatment course (on the 8th day after the irradiation). mice were euthanized and splenocyte cultures were aseptically prepared for assessment of spontaneous production of IL-2 and GM-CSF by the spleen lymphocytes in vitro.
Simultaneously, blood, spleen and marrow samples were collected for blood leukocyte and lymphocyte, and spleen and marrow nucleated cell counting.
Additionally, hemopoietic colony formation ability of spleen and bone marrow cells was, assessed by the method of direct count of colony forming units (CFU) in the spleens of irradiated CBA mice receiving intravenously spleen or bone marrow cells obtained from animals of control or test groups.

[12] = cyclophosphamide-treated mice, day 8 after CP

OO [0.003% H2O2, hydrogen peroxide]
Accumulation of ascitic (weight gain, %) ([1]; number of injection 0): 0.9 ± 0.2%
Accumulation of ascitic (weight gain, %) ([1]; number of injection 3): 14.1 ± 0.6%
Accumulation of ascitic (weight gain, %) ([1]; number of injection 7): 27.2 ± 1.2%
Mean survival time ([1]; mice inoculated with Erlich adenocarcinoma cells): 9.8 ± 0.8
number of HL-60 cells per well (HL-60 cells; 24 hours incubation): 122 ± 6 × 10^4 cells
number of HL-60 cells per well (HL-60 cells; 48 hours incubation): 186 ± 12 × 10^4 cells
number of HL-60 cells per well (HL-60 cells; 72 hours incubation): 488 ± 24 × 10^4 cells
number of HL-60 cells per well (HL-60 cells; 96 hours incubation): 712 ± 22 × 10^4 cells
number of REF cells after UV-irradiation (M ± m) ([2]; 0 hours): 822 ± 11 × 10^3 cells
number of REF cells after UV-irradiation (M ± m) ([2]; 24 hours): 365 ± 14 × 10^3 cells
number of REF cells after UV-irradiation (M ± m) ([2]; 48 hours): 258 ± 33 × 10^3 cells
number of REF cells after UV-irradiation (M ± m) ([2]; 72 hours): 159 ± 24 × 10^3 cells
number of clones of e-ras cells (M ± m) ([3]; 0 hours of incubation): 288 ± 4
number of clones of e-ras cells (M ± m) ([3]; 24 hours of incubation): 286 ± 4
number of clones of e-ras cells (M ± m) ([3]; 48 hours of incubation): 264 ± 3
number of clones of e-ras cells (M ± m) ([3]; 72 hours of incubation): 234 ± 6
number of normal lymphocytes per well (normal human lymphocytes; 24 hours incubation): 28 ± 2 × 10^4 cells
number of normal lymphocytes per well (normal human lymphocytes; 48 hours incubation): 73 ± 5 × 10^4 cells
number of normal lymphocytes per well (normal human lymphocytes; 72 hours incubation): 123 ± 8 × 10^4 cells
number of normal lymphocytes per well (normal human lymphocytes; 96 hours incubation): 206 ± 8 × 10^4 cells
Accumulation of ascitic (weight gain, %) (leukemia L1210 cells [4]; number of injection 0): 0.77 ± 0.2%
Accumulation of ascitic (weight gain, %) (leukemia L1210 cells [4]; number of injection 3): 6.1 ± 0.4%
Accumulation of ascitic (weight gain, %) (leukemia L1210 cells [4]; number of injection 7): 19.2 ± 2.2%
Mean survival time (leukemia L1210 cells [4]; mice inoculated with leukemia L1210 cells): 9.2 ± 0.8
number of clones of e-ras cells after UV-irradiation (M ± m) ([5]; 0 hours): 288 ± 4
number of clones of e-ras cells after UV-irradiation (M ± m) ([5]; 24 hours): 186 ± 4
number of clones of e-ras cells after UV-irradiation (M ± m) ([5]; 48 hours): 124 ± 3
number of clones of e-ras cells after UV-irradiation (M ± m) ([5]; 72 hours): 84 ± 6
Accumulation of ascitic fluid (weight gain) (leukemia L1210 cells [6]; 0 injections): 0.79%
Concentration in serum: IFNα (leukemia L1210 cells [6]; 0 injections): 133.7 pg/mL
Concentration in serum: IL-1 (leukemia L1210 cells [6]; 0 injections): 17.07 pg/mL
Concentration in serum: IL-2 (leukemia L1210 cells [6]; 0 injections): 16.18 pg/mL
Concentration in serum: IL-6 (leukemia L1210 cells [6]; 0 injections): 120.9 pg/mL
Concentration in serum: TNFα (leukemia L1210 cells [6]; 0 injections): 110. pg/mL
Accumulation of ascitic fluid (weight gain) (leukemia L1210 cells [6]; 3 daily injections): 6.12%
Concentration in serum: IFNα (leukemia L1210 cells [6]; 3 daily injections): 189. pg/mL
Concentration in serum: IL-1 (leukemia L1210 cells [6]; 3 daily injections): 38.15 pg/mL
Concentration in serum: IL-2 (leukemia L1210 cells [6]; 3 daily injections): 23.5 pg/mL
Concentration in serum: IL-6 (leukemia L1210 cells [6]; 3 daily injections): 140. pg/mL
Concentration in serum: TNFα (leukemia L1210 cells [6]; 3 daily injections): 158.0 pg/mL
Accumulation of ascitic fluid (weight gain) (leukemia L1210 cells [6]; 7 daily injections): 21.61%
Concentration in serum: IFNα (leukemia L1210 cells [6]; 7 daily injections): 209. pg/mL
Concentration in serum: IL-1 (leukemia L1210 cells [6]; 7 daily injections): 23.6 pg/mL
Concentration in serum: IL-2 (leukemia L1210 cells [6]; 7 daily injections): 45.5 pg/mL
Concentration in serum: IL-6 (leukemia L1210 cells [6]; 7 daily injections): 103. pg/mL
Concentration in serum: TNFα (leukemia L1210 cells [6]; 7 daily injections): 220.0 ± pg/mL
Mean survival time (leukemia L1210 cells [6]; mice inoculated with leukemia L1210 cells, daily injections till day 14 or death): 9.7 ± 0.21
Accumulation of ascitic fluid (weight gain) (leukemia P388 cells [7]; 0 injections): 0.63 ± 0.15%
Concentration in serum: IFNα (leukemia P388 cells [7]; 0 injections): 129. ± 10.0 pg/mL
Concentration in serum: IL-1 (leukemia P388 cells [7]; 0 injections): 15.5 ± 2.04 pg/mL
Concentration in serum: IL-2 (leukemia P388 cells [7]; 0 injections): 14.95 ± 2.16 pg/mL
Concentration in serum: IL-6 (leukemia P388 cells [7]; 0 injections): 134.0 ± 15.6 pg/mL
Concentration in serum: TNFα (leukemia P388 cells [7]; 0 injections): 119. ± 9.13 pg/mL
Accumulation of ascitic fluid (weight gain) (leukemia P388 cells [7]; 3 daily injections): 5.4 ± 0.62%
Concentration in serum: IFNα (leukemia P388 cells [7]; 3 daily injections): 205.8 ± 18.3 pg/mL
Concentration in serum: IL-1 (leukemia P388 cells [7]; 3 daily injections): 44.7 ± 6.14 pg/mL
Concentration in serum: IL-2 (leukemia P388 cells [7]; 3 daily injections): 22.0 ± 2.81 pg/mL
Concentration in serum: IL-6 (leukemia P388 cells [7]; 3 daily injections): 156.0 ± 16.3 pg/mL
Concentration in serum: TNFα (leukemia P388 cells [7]; 3 daily injections): 144.5 ± 12.8 pg/mL
Accumulation of ascitic fluid (weight gain) (leukemia P388 cells [7]; 7 daily injections): 20.3 ± 2.28%
Concentration in serum: IFNα (leukemia P388 cells [7]; 7 daily injections): 190. ± 16.7 pg/mL
Concentration in serum: IL-1 (leukemia P388 cells [7]; 7 daily injections): 28.6 ± 4.11 pg/mL
Concentration in serum: IL-2 (leukemia P388 cells [7]; 7 daily injections): 40.8 ± 5.12 pg/mL
Concentration in serum: IL-6 (leukemia P388 cells [7]; 7 daily injections): 110.9 ± 12.5 pg/mL
Concentration in serum: TNFα (leukemia P388 cells [7]; 7 daily injections): 248. ± 20.7 pg/mL
Mean survival time (leukemia P388 cells [7]; mice inoculated with leukemia P388 cells, daily injections till day 14 or death): 9.9 ± 0.24
number of REF cells (M ± m) ([8]; 0 hours of incubation): 822 ± 11 × 10^3 cells
number of REF cells (M ± m) ([8]; 24 hours of incubation): 1365 ± 14 × 10^3 cells
number of REF cells (M ± m) ([8]; 48 hours of incubation): 2598 ± 63 × 10^3 cells
number of REF cells (M ± m) ([8]; 72 hours of incubation): 5059 ± 34 × 10^3 cells
Accumulation of ascitic (weight gain, %) (leukemia P388 cells [9]; number of injection 0): 0.7 ± 0.2%
Accumulation of ascitic (weight gain, %) (leukemia P388 cells [9]; number of injection 3): 4.1 ± 0.4%
Accumulation of ascitic (weight gain, %) (leukemia P388 cells [9]; number of injection 7): 19.0 ± 2.1%
Mean survival time (leukemia P388 cells [9]; mice inoculated with leukemia P388 cells): 21.2 ± 0.8

N[C@@H](CCC(=O)N[C@@H](CS)C(=O)NCC(=O)O)C(=O)O [GSH, γ-glutamyl-cysteinyl-glycine]
SRBC agglutinin titer ([10]; cyclophosphamide-treated mice immunized with SRBC, day 7 after immunization): 1.94 log2 and 1.62 log2 and 2.09 log2
Blood leukocyte count [10, 12]: 5.2 ± 10^9/L and 6.3 ± 10^9/L and 6.2 ± 10^9/L
Blood lymphocyte count [10, 12]: 4.3 ± 10^9/L and 4.6 ± 10^9/L and 5.31 ± 10^9/L
Bone marrow nucleated cell number [10, 12]: 32.2 ± 10^6/L and 36.4 ± 10^6/L
IL-2 production by splenocytes [10, 12]: 17.2 U/mL and 15.3 U/mL and 20.3 U/mL
Blood leukocyte count [11]: 4.8 ± 10^9/L and 5.7 ± 10^9/L and 4.95 ± 10^9/L
Blood lymphocyte count [11]: 3.4 ± 10^9/L and 4.6 ± 10^9/L and 4.0 ± 10^9/L
Bone marrow CFU [11]: 22.1 and 25.6 and 25.3
Bone marrow nucleated cell number [11]: 17.2 ± 10^6/L and 24.7 ± 10^6/L and 22.5 ± 10^6/L
IL-2 production by splenocytes [11]: 8.6 U/mL and 9.3 U/mL and 9.9 U/mL
Spleen CFU [11]: 56.3 and 66.3 and 59.8
Spleen nucleated cell number [11]: 4.3 ± 10^7/L and 6.93 ± 10^7/L and 5.5 ± 10^7/L
